Measured values reported in patent US20180344768A1, “NK CELL-BASED THERAPY” (Onkimmune Limited, priority 2016, published 2018).
Where two headings read alike, the source gives them in different places.

How the values were obtained:
DR5 [1] = details: 24 hours
Protocol: Bortezomib was bought from Millennium Pharmaceuticals. Mouse anti-human DR5-AF647 (catalog number: 565498) was bought from BD Pharmingen. The stained cell samples were analyzed on BD FACS Canto II.

MM1.S cells [2] = test: Bortezomib-induced sensitization of MM1.S cells to KHYG-1 cells expressing TRAIL variant; type: cell-based; details: MM1.S pretreated with 2.5 nM for 24 hours, 1:1 ratio, 12 hours co-culture
Protocol: (2) 6 hours after electroporation of TRAIL variant mRNA, KHYG-1 cells were then cultured with MM cells in 12-well plate. After washing, cell concentrations were adjusted to 1×10^6/mL, before mixing KHYG-1 and MM1.S cells at 1:1 ratio to culture for 12 hours. (3) Flow cytometric analysis of the cytotoxicity of KHYG-1 cells was carried out. The co-cultured cells were collected, washed and then stained with CD2-APC antibody (5 uL/test), AnnexinV-FITC (5 uL/test) and SYTOX-Green (5 uL/test) using AnnexinV binding buffer. (4) Data were further analyzed using FlowJo 7.6.2 software. CD2-negative population represents MM.1S cells. KHYG-1 cells are strongly positive for CD2. Finally, the AnnexinV-FITC and SYTOX-Green positive cells in the CD2-negative population were analyzed.

CTLA4 gene = test: gRNA cleavage activity, T7E1 mismatch detection assay in K562 cells; type: cell-based, human; details: CRISPR/Cas9, agarose gel after T7E1
Description: (§1) Two gRNA candidates were selected for each target gene and their cleavage efficacies in K562 cells determined. The sequences of the gRNA candidates are shown in Table 1 and the Protospacer Adjacent Motif (PAM) relates to the last 3 bases of the sequence. The flanking regions of the gRNA sequences on the LIR2 gene (SEQ ID NO: 1; amino acid translation SEQ ID NO: 2) and the CTLA4 gene (SEQ ID NO: 7; amino acid translation SEQ ID NO: 8) are shown in FIGS. 1 and 2, respectively.
(§2) K562 cells were transfected with the prepared gRNA constructs (FIG. 3) and subsequently harvested for PCR amplification. The presence of GFP expression was used to report successful incorporation of the gRNA construct into the K562 cells. This confirmed expression of the Cas9 gene and therefore the ability to knock out expression of the LIR2 and CTLA4 genes.
(§3) The cleavage activity of the gRNA constructs was determined using an in vitro mismatch detection assay. T7E1 endonuclease I recognizes and cleaves non-perfectly matched DNA, allowing the parental LIR2 and CTLA4 genes to be compared to the mutated genes following CRISPR/Cas9 transfection and non-homologous end joining (NHEJ).

LIR2 gene = test: as above; type: cell-based, human; details: CRISPR/Cas9, agarose gel after T7E1
Description: as §1, §2, §3
The three bands corresponding to each mutation relate to the parental gene and the two resulting strands following detection of a mismatch in the DNA sequence after transfection.

DR4 = DR4 (Homo sapiens, UniProt O00220); details: surface plasmon resonance; cited from earlier work
decoy receptor DcR1 = molecular target: T1, decoy receptor DcR1 (Homo sapiens, UniProt O14798); details: surface plasmon resonance; cited from earlier work
T1 sequence (O14798 26-236): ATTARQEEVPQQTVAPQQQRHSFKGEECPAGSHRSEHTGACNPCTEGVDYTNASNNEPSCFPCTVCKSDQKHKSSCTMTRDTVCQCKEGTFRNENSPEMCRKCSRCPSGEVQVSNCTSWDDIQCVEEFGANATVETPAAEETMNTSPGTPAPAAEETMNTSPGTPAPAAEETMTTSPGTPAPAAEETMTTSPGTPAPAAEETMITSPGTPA

perforin = test: CMA-induced reduction of perforin expression in KHYG-1 cells; type: cell-based, human; details: 100 nM for 2 hours
Protocol: Mouse anti-human perforin-AF647 (catalog number: 563576) was bought from BD Pharmingen. Concanamycin A (catalog number: SC-202111) was bought from Santa Cruz Biotechnology. The stained cell samples were analyzed using a BD FACS Canto II. […] (2) KHYG-1 cells (6 hours after electroporation, cultured in penicillin/streptomycin free RPMI1640 medium) were further treated with 100 nM CMA or equal volume of vehicle (DMSO) for 2 hours. (3) The cells were collected (1×10^6 cells/test) by centrifugation (1500 rpm×5 minutes) and the supernatant was aspirated. (4) The cells were fixed in 4% paraformaldehyde in PBS solution at room temperature for 15 minutes. (5) The cells were washed with 4 mL of FACS Buffer (PBS, 0.5-1% BSA, 0.1% sodium azide) twice. (6) The cells were permeabilized with 1 mL of PBS/0.1% saponin buffer for 30 minutes at room temperature. (7) The cells were washed with 4 mL of PBS/0.1% saponin buffer. (8) The cells were re-suspended in 100 uL of PBS/0.1% saponin buffer, before adding 5 uL of the antibody to each tube and incubating for 30 minutes on ice. (9) The cells were washed with PBS/0.1% saponin buffer 3 times by centrifugation at 1500 rpm for 5 minutes. (10) The cells were re-suspended in 500 uL of ice cold FACS Buffer and kept in the dark on ice or at 4° C. in a fridge briefly until analysis. (11) The cells were analyzed on the flow cytometer (BD FACS Canto II). […]

KHYG-1 cells = test: KHYG-1 cell viability after CMA treatment; type: cell-based; details: 100 nM CMA or vehicle
MM1.S cells [3] = test: Cytotoxicity of KHYG-1 cells with/without TRAIL variant in the presence of CMA; type: cell-based; details: 100 mM CMA for 2 hours, 1:1 ratio, 12 hours
Protocol: KHYG-1 cells were transfected with the TRAIL variant (TRAIL D269H/E195R), as described above in Example 6. (1) MM1.S cells were used as target cells. (2) 6 hours after electroporation of TRAIL mRNA, KHYG-1 cells were treated with […] CMA or an equal volume of vehicle for 2 hours. […] (5) The KHYG-1 and MM1.S cells were mixed at 1:1 ratio and co-cultured for 12 hours. (6) Flow cytometric analysis of the cytotoxicity of KHYG-1 cells was carried out. The co-cultured cells were washed and stained with CD2-APC antibody (5 uL/test). (7) After washing, further staining was performed with AnnexinV-FITC (5 uL/test) and SYTOX-Green (5 uL/test) using AnnexinV binding buffer. (8) Data were further analyzed using FlowJo 7.6.2 software. CD2-negative population represents MM1.S cells. KHYG-1 cells are strongly positive for CD2. The AnnexinV-FITC and SYTOX-Green positive cells in CD2-negative population were then analyzed.

DR5 [4] = molecular target: DR5 (Homo sapiens, UniProt O14763); details: D269H/E195R mutation vs wildtype TRAIL; cited from earlier work
DcR1 = molecular target: T2, DcR1 (Homo sapiens, UniProt O14798); details: D269H/E195R mutation vs wildtype TRAIL; cited from earlier work
T2 sequence (O14798 26-236): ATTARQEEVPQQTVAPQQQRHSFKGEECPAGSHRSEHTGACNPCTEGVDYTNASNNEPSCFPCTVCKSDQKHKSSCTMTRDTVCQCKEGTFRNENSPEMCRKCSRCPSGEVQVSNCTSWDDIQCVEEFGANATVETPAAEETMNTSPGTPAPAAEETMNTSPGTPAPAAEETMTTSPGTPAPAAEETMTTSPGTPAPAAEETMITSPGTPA

DcR2 = molecular target: T3, DcR2 (Homo sapiens, UniProt Q9UBN6); details: D269H/E195R mutation vs wildtype TRAIL; cited from earlier work
T3 sequence (Q9UBN6 56-386): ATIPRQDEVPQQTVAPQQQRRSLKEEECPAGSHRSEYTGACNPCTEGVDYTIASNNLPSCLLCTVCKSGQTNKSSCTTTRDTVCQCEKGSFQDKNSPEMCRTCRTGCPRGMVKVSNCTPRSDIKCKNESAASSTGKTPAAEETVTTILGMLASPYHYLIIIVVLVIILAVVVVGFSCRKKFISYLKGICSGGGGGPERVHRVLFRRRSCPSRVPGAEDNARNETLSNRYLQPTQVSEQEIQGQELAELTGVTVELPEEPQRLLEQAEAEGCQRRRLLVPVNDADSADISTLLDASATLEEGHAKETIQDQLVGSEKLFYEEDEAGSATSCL

## CC(C)C[C@H](NC(=O)[C@H](Cc1ccccc1)NC(=O)c1cnccn1)B(O)O [Bortezomib]
DR5 [1]; MM1.S cells, low dose
  DR5 expression: increase
DR5 [1]; MM cells, high doses
  DR5 expression: could not be upregulated
DR5 [1]; RPMI8226 cells, low dose
  DR5 expression: increase
MM1.S cells [2]
  sensitivity of MM cells to KHYG-1 cells expressing the TRAIL variant: induced sensitivity

## g15 gRNA: gRNA candidate targeting hCTLA4, CCTTGTGCCGCTGAAATCCAAGG (SEQ ID NO: 10) (expressed or natural sequence; listed as Homo sapiens)
CTLA4 gene
  gRNA cleavage efficiency at CTLA4 (T7E1): 26%

## g9 gRNA: gRNA candidate targeting hLIR2, GAGTCACAGGTGGCATTTGGCGG (SEQ ID NO: 3) (expressed or natural sequence; listed as Homo sapiens)
LIR2 gene
  gRNA cleavage efficiency (LIR2 knockout): 11%

## Wildtype TRAIL: wildtype TRAIL ligand (CD253)
DR4
  Kd: > 2 nM
Decoy receptor DcR1
  Kd: > 20 nM

## g7 gRNA: gRNA candidate targeting hCTLA4, CACTCACCTTTGCAGAAGACAGG (SEQ ID NO: 9) (expressed or natural sequence; listed as Homo sapiens)
CTLA4 gene
  gRNA cleavage efficiency at CTLA4 (T7E1): 32%

## C/C=C/[C@H]1O[C@@](O)([C@@H](C)[C@H](O)[C@H](C)[C@H]2OC(=O)/C(OC)=C/C(C)=C/[C@@H](C)[C@@H](O)[C@@H](CC)[C@@H](O)[C@H](C)C/C(C)=C/C=C/[C@@H]2OC)C[C@@H](O[C@H]2C[C@@H](O)[C@H](OC(N)=O)[C@@H](C)O2)[C@@H]1C [CMA, Concanamycin A]
perforin
  perforin expression level: significantly decreased
KHYG-1 cells
  viability of KHYG-1 cells: no negative effects
MM1.S cells [3]
  effect of CMA on cytotoxic activity of NK cells expressing TRAIL variant: unable to significantly diminish

## g18 gRNA: gRNA candidate targeting hLIR2, CGAATCGCAGGTGGTCGCACAGG (SEQ ID NO: 4) (expressed or natural sequence; listed as Homo sapiens)
LIR2 gene
  gRNA cleavage efficiency (LIR2 knockout): 10%

B1: TRAIL variant: described in WO 2009/077857; encoded by the wildtype TRAIL gene containing the D269H/E195R mutation (protein)
chain: MAMMEVQGGPSLGQTCVLIVIFTVLLQSLCVAVTYVYFTNELKQMQDKYSKSGIACFLKEDDSYWDPNDEESMNSPCWQVKWQLRQLVRKMILRTSEETISTVQEKQQNISPLVRERGPQRVAAHITGTRGRSNTLSSPNSKNEKALGRKINSWESSRSGHSFLSNLHLRNGELVIHEKGFYYIYSQTYFRFQERIKENTKNDKQMVQYIYKYTSYPDPILLMKSARNSCWSKDAEYGLYSIYQGGIFELKENDRIFVSVTNEHLIDMHHEASFFGAFLVG
DR5 [4]
  affinity for DR5: significantly increases the affinity
DcR1
  affinity for decoy receptor DcR1: reducing the affinity
DcR2
  affinity for decoy receptor DcR2: reducing the affinity
